Data from US9567300B2, “Hexahydropentaleno derivatives, preparation method and use in medicine thereof” (SUNSHINE LAKE PHARMA CO., LTD., priority 2012, dated 2017).

Legend:
DPP-9 = target: T1, DPP-9 (Homo sapiens, UniProt Q86TI2); experiment: Active inhibition DPP-9 assay (Gly-Pro-AMC substrate, fluorescence); assay type: biochemical; details: Gly-Pro-AMC 10 μM, 50 mM Tris pH 7.5
T1 construct: purchased Bioscience 80090
Procedure: (§1) The following methods were used for testing the inhibitive action of the compound disclosed herein against DPP-IV, DPP-8 and DPP-9 enzymatic activity. The inhibitive ability of the compound disclosed herein against enzymatic activity of DPP-IV, DPP-8 and DPP-9 was tested. The measurements of the inhibition ratio or the 50% inhibiting concentration IC50 of every compound were based on a fixed quantity of enzyme-substrate mixtures and different concentrations of the test compounds.
DPP-9 enzyme was purchased from Bioscience, Catalog No. 80090.
(§2) The test compound was dissolved in an appropriate amount of DMSO to prepare 100 mM mother liquor, which was divided into EP tubes and preserved at −20° C. The mother liquor was diluted with an assay buffer to prepare solutions with required concentrations. Sample solutions with different concentrations (4 μL) and certain concentration of DPP-IV (DPP-8 or DPP-9) solution (4 μL) were added into 384-well plates in turn. Referred to the instruction manual, Gly-Pro-AMC was selected as a substrate and the concentration thereof was 10 μM. The 16 mM mother liquor was prepared from the substrate and preserved at −20° C. for use. The 16 mM mother liquor was diluted with an assay buffer to a solution of known concentration. The assay buffer of DPP-IV was 25 mM Tris, and its pH was 8.0. The assay buffers of DPP-8 and DPP-9 were 50 mM Tris, and their pH was 7.5. The substrate mother liquor was diluted with an assay buffer, and the mixture (4 μL) was added into 384-well plates to prepare final solution concentration. The whole process was carried out in an ice bath. After the addition of the components of the assay system was completed, the system was centrifuged. The supernatant was then transferred to an Infinite F200 multifunctional microplate reader, and 20 fluorescence values were recorded every 30 sec. And then Slope (V0) was calculated directly by the software of microplate reader, fetching the data in the linear range. The measured reaction rate and the corresponding inhibition concentration were analyzed. Percent inhibition is I(%)=(V0−Vi)/V0×100%. Vi represents the initial reaction rate at different inhibition concentrations. V0 represents the initial reaction rate without inhibitor. Vi/V0 represents the inhibition level of inhibitor. Relevant curve chart was made with inhibition concentration as a horizontal coordinate and the value of Vi/V0 as a vertical coordinate. The IC50 values were calculated by Graph Pad Prism statistical analysis software.

DPP-IV = target: T2, DPP-IV (Homo sapiens, UniProt P27487); experiment: Active inhibition DPP-IV assay (Gly-Pro-AMC substrate, fluorescence); assay type: biochemical; details: Gly-Pro-AMC 10 μM, 25 mM Tris pH 8.0
T2 construct: purchased R&D 1180-SE
Procedure: as §1
DPP-IV enzyme was purchased from R&D, Catalog No. 1180-SE.
as §2

DPP-8 = target: T3, DPP-8 (Homo sapiens, UniProt Q6V1X1); experiment: Active inhibition DPP-8 assay (Gly-Pro-AMC substrate, fluorescence); assay type: biochemical; details: Gly-Pro-AMC 10 μM, 50 mM Tris pH 7.5
T3 construct: purchased Biomol SE-827
Procedure: as §1
DPP-8 enzyme was purchased from Biomol, Catalog No. SE-827.
as §2

normal C57BL/6 mice = experiment: Effects of DPP-IV inhibitors on the blood glucose of normal C57BL/6 mice (oral glucose tolerance); assay type: in vivo; details: oral 5 mg/kg; for Nor-sugar rate % (5 mg/kg): male C57BL/6 mice, glucose 2.5 g/kg by gavage 30 min after administration; for hypoglycemic activities for C57BL/6 mice: conclusion in words
Procedure: The effects of the test compounds on the oral glucose tolerance of normal C57BL/6 mice were observed, and the hypoglycemic activities of these compounds in vivo were evaluated preliminarily.
Preparation procedure: Drugs were accurately weighed, and 5 mg of compounds of examples 3, 9 15, 16 and 17 were dissolved respectively in 20 mL of normal saline to obtain 0.25 mg/mL solutions.
Administrated Dose: The oral dose was 5 mg/kg and the gavage dose was 0.02 mL/g.
Test Method: The normal male C57BL/6 mice were grouped randomly into a blank control group, a positive control group, and treatment groups having 7 mice each group.
Administration and Serum Glucose Determination: C57BL/6 mice of each group were fasted for 18 hours before the experiment. The blood was drawn from the caudal vein of the mice and the glucose level was measured by using a blood-glucose meter. After detection, 0.25 mg/mL of positive control, 0.25 mg/mL of examples 3, 9, 15, 16 and 17 and normal saline were respectively administered to the positive control group, treatment groups and blank control group by intragastric administration. The blood glucose level (0 min) of positive control group was measured in 60 min after administration. The blood glucose levels (0 min) of the other groups were measured in 30 min after administration, and then glucose (2.5 g/kg) was administered to the mice through gavage. The blood was drawn from the caudal vein of the mice in 15 min, 30 min, 45 min, 60 min, 120 min after administration. The blood glucose levels of C57BL/6 mice were measured continuously by blood-glucose meter.
1. Glucose concentration-time curve was plotted, and AUC from 0 to 120 min and hypoglycemic rate of each dosage group at blood glucose peak were calculated.
2. Experimental data were represented in x±SD. The data were analyzed by SPSS 16.0 software. The data were compared between multiple groups using nonparametric Kruskal-Wallis H test method.

T1 sequence (Q86TI2 whole entry): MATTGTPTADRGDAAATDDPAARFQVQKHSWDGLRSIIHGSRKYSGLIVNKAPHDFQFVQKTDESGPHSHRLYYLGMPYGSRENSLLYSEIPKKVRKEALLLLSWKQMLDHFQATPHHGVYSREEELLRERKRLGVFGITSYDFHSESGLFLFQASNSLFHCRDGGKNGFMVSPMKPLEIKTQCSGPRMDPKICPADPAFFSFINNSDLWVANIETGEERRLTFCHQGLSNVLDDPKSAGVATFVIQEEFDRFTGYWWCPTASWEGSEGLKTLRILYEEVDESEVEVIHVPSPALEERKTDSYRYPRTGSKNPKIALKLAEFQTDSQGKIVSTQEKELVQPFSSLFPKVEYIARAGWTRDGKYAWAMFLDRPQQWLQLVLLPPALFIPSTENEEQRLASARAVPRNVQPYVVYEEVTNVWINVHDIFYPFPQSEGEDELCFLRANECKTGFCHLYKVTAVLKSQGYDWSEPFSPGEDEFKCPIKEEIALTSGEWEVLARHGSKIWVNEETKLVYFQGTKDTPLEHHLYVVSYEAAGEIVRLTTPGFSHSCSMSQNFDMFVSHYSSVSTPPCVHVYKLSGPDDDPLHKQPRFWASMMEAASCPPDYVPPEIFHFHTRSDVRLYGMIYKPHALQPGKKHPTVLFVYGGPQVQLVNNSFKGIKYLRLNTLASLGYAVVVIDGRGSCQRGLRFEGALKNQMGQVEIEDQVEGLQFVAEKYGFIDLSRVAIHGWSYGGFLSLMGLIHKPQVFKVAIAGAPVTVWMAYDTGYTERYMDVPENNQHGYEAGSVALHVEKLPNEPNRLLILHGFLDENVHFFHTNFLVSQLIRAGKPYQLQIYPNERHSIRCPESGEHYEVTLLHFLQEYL
T2 sequence (P27487 whole entry): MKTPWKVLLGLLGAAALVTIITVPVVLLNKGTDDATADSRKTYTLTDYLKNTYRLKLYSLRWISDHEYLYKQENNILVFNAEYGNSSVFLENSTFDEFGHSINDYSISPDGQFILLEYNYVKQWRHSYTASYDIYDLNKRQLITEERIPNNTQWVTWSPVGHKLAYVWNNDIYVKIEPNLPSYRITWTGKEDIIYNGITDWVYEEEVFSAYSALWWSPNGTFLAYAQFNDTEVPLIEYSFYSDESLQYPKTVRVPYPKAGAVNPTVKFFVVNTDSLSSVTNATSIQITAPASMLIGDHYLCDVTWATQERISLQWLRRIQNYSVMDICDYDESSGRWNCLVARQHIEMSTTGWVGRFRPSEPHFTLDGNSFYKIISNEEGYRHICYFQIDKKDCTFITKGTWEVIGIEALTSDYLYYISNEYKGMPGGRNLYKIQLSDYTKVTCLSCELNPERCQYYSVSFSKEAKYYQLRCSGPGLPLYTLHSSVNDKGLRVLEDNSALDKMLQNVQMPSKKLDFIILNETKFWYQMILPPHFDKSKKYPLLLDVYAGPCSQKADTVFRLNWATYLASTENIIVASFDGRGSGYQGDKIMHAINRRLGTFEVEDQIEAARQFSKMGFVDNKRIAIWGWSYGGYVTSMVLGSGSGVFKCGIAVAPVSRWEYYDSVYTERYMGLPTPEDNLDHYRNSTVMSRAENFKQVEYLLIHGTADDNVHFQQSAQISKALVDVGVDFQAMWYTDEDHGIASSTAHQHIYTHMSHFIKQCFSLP
T3 sequence (Q6V1X1 whole entry): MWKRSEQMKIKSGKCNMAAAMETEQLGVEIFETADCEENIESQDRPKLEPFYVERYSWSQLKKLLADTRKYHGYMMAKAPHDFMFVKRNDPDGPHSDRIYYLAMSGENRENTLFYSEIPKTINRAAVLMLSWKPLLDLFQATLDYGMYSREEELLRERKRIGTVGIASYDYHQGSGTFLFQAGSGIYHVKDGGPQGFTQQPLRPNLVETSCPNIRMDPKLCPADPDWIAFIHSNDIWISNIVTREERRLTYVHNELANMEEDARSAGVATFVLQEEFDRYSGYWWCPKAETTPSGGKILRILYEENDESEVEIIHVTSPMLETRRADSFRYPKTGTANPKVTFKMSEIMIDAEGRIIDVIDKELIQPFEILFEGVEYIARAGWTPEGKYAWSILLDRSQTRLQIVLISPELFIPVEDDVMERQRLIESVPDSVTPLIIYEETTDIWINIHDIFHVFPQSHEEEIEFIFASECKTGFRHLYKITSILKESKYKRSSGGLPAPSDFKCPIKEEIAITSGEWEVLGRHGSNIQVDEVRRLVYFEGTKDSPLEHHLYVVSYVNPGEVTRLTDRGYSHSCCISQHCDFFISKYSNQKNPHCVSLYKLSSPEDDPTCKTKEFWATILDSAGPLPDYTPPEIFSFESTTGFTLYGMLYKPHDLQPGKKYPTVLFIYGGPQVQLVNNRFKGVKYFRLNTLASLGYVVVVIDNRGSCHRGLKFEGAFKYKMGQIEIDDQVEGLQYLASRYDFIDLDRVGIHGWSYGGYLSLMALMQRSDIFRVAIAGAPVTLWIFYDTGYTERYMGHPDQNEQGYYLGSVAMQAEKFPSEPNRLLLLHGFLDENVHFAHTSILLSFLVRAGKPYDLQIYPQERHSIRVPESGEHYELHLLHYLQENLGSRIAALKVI

| IC50 (DPP-9) [nM] | IC50 (DPP-IV) [nM] | IC50 (DPP-8) [nM] | Compound | Nor-sugar rate % (5 mg/kg) (normal C57BL/6 mice) [%] | hypoglycemic activities for C57BL/6 mice (normal C57BL/6 mice) |
| --- | --- | --- | --- | --- | --- |
| 54 | 4.03 | 1580 | CO[C@@H]1C[C@@H]2C[C@@](C)(NCC(=O)N3C[C@@H](F)C[C@H]3C#N)C[C@@H]2C1 [Example 2, (2S,4S)-4-fluoro-1-(2-(((2r,3aR,5S,6aS)-5-methoxy-2-methyloctahydropentalen-2-yl)amino)acetyl)pyrrolidine-2-carbonitrile] | – | – |
| 29 | 4.01 | 2850 | C[C@@]1(NCC(=O)N2C[C@@H](F)C[C@H]2C#N)C[C@H]2C[C@H](O)C[C@H]2C1 [Example 9, (2S,4S)-4-fluoro-1-(2-(((2r,3aR,5R,6aS)-5-hydroxy-2-methyloctahydropentalen-2-yl)amino)acetyl)pyrrolidine-2-carbonitrile] | 18.7 | good hypoglycemic activities |
| 48 | 2.72 | 3700 | CC(=O)O[C@@H]1C[C@@H]2C[C@@](C)(NCC(=O)N3C[C@@H](F)C[C@H]3C#N)C[C@@H]2C1 [Example 17, (2S,3aR,5r,6aS)-5-((2-((2S,4S)-2-cyano-4-fluoropyrrolidin-1-yl)-2-oxoethyl)amino)-5-methyloctahydropentalen-2-yl acetate] | 30.4 | good hypoglycemic activities |
| 27 | 4.29 | 2670 | CCO[C@@H]1C[C@@H]2C[C@@](C)(NCC(=O)N3C[C@@H](F)C[C@H]3C#N)C[C@@H]2C1 [Example 7, (2S,4S)-1-(2-(((2r,3aR,5S,6aS)-5-ethoxy-2-methyloctahydropentalen-2-yl)amino)acetyl)-4-fluoropyrrolidine-2-carbonitrile] | – | – |
| 93 | 2.49 | 3920 | C[C@@]1(NCC(=O)N2C[C@@H](F)C[C@H]2C#N)C[C@H]2C[C@@H](O)C[C@H]2C1 [Example 3, (2S,4S)-4-fluoro-1-(2-(((2r,3aR,5S,6aS)-5-hydroxy-2-methyloctahydropentalen-2-yl)amino)acetyl)pyrrolidine-2-carbonitrile] | 35.96 | – |
| – | 9.25 | – | C[C@@]1(NCC(=O)N2C[C@@H](F)C[C@H]2C#N)C[C@H]2C[C@@H](OC3CC3)C[C@H]2C1 [Example 13, (2S,4S)-1-(2-(((2r,3aR,5S,6aS)-5-cyclopropoxy-2-methyloctahydropentalen-2-yl)amino)acetyl)-4-fluoropyrrolidine-2-carbonitrile] | – | – |
| 12.4 | 2.5 | 900 | CO[C@H]1C[C@@H]2C[C@@](C)(NCC(=O)N3C[C@@H](F)C[C@H]3C#N)C[C@@H]2C1 [Example 4, (2S,4S)-4-fluoro-1-(2-(((2r,3aR,5R,6aS)-5-methoxy-2-methyloctahydropentalen-2-yl)amino)acetyl)pyrrolidine-2-carbonitrile] | – | – |

The next lines start with the molecule.

| Compound | IC50 (DPP-9) [nM] | IC50 (DPP-IV) [nM] | IC50 (DPP-8) [nM] | Nor-sugar rate % (5 mg/kg) (normal C57BL/6 mice) [%] | hypoglycemic activities for C57BL/6 mice (normal C57BL/6 mice) |
| --- | --- | --- | --- | --- | --- |
| C[C@@]1(NCC(=O)N2CCC[C@H]2C#N)C[C@H]2C[C@@H](O)C[C@H]2C1 [Example 5, (S)-1-(2-(((2r,3aR,5S,6aS)-5-hydroxy-2-methyloctahydropentalen-2-yl)amino)acetyl)pyrrolidine-2-carbonitrile] | 4330 | 27.4 | – | – | – |
| C[C@@]1(NCC(=O)N2C3C[C@H]3C[C@H]2C#N)C[C@H]2C[C@@H](O)C[C@H]2C1 (stereo partly drawn) [Example 12, (1S,3S,5S)-2-(2-(((2r,3aR,5S,6aS)-5-hydroxy-2-methyloctahydropentalen-2-yl)amino)acetyl)-2-azabicyclo[3.1.0]hexane-3-carbonitrile] | – | 171 | – | – | – |
| CC(=O)O[C@@H]1C[C@@H]2C[C@@](C)(NCC(=O)N3CCC[C@H]3C#N)C[C@@H]2C1 [Example 18, (2S,3aR,5r,6aS)-5-((2-((S)-2-cyanopyrrolidin-1-yl)-2-oxoethyl)amino)-5-methyloctahydropentalen-2-yl acetate] | 242 | 2.53 | 20100 | – | – |
| C#CC1C[C@@H]2C[C@@](C)(NCC(=O)N3C[C@@H](F)C[C@H]3C#N)C[C@@H]2C1 (stereo partly drawn) [Example 20, (2S,4S)-1-(2-(((2s,3aR,6aS)-5-ethynyl-2-methyloctahydropentalen-2-yl)amino)acetyl)-4-fluoropyrrolidine-2-carbonitrile] | 91 | 4.18 | 2070 | – | – |
| C[C@@]1(NCC(=O)N2C[C@@H](F)C[C@H]2C#N)C[C@H]2C[C@@H](OCC3CC3)C[C@H]2C1 [Example 8, (2S,4S)-1-(2-(((2r,3aR,5S,6aS)-5-(cyclopropylmethoxy)-2-methyloctahydropentalen-2-yl)amino)acetyl)-4-fluoropyrrolidine-2-carbonitrile] | 31 | 6.91 | 3800 | – | – |
| CO[C@@H]1C[C@@H]2CC(NCC(=O)N3C[C@@H](F)C[C@H]3C#N)C3(CC3)[C@@H]2C1 (stereo partly drawn) [Example 11, (2S,4S)-4-fluoro-1-(2-(((3a′S,5′R,6a′R)-5′-methoxyhexahydro-2′H-spiro[cyclopropane-1,1′-pentalen]-2′-yl)amino)acetyl)pyrrolidine-2-carbonitrile] | 916 | 105 | 14200 | – | – |
| CO[C@H]1C[C@@H]2C[C@@](C)(NCC(=O)N3CCC[C@H]3C#N)C[C@@H]2C1 [Example 10, (S)-1-(2-(((2r,3aR,5R,6aS)-5-methoxy-2-methyloctahydropentalen-2-yl)amino)acetyl)pyrrolidine-2-carbonitrile] | 62 | 2.43 | 5980 | – | – |
| C[C@@]1(NCC(=O)N2C[C@@H](F)C[C@H]2C#N)C[C@H]2CC3(CCO3)C[C@H]2C1 (stereo partly drawn) [Example 19, (2S,4S)-4-fluoro-1-(2-(((3a′R,5′r,6a′S)-5′-methylhexahydro-1′H-spiro[oxetane-2,2′-pentalen]-5′-yl)amino)acetyl)pyrrolidine-2-carbonitrile] | – | 25.8 | – | – | – |
| CO[C@@H]1C[C@@H]2C[C@@](C)(NCC(=O)N3CCC[C@H]3C#N)C[C@@H]2C1 [Example 1, (S)-1-(2-(((2r,3aR,5S,6aS)-5-methoxy-2-methyloctahydropentalen-2-yl)amino)acetyl)pyrrolidine-2-carbonitrile] | 4600 | 11.3 | 50500 | – | – |
| CCO[C@@H]1C[C@@H]2C[C@@](C)(NCC(=O)N3CCC[C@H]3C#N)C[C@@H]2C1 [Example 6, (S)-1-(2-(((2r,3aR,5S,6aS)-5-ethoxy-2-methyloctahydropentalen-2-yl)amino)acetyl)pyrrolidine-2-carbonitrile] | 193 | 4.52 | 18200 | – | – |
| C[C@@]1(NCC(=O)N2CCC[C@H]2C#N)C[C@H]2C[C@@H](OC3CC3)C[C@H]2C1 [Example 14, (S)-1-(2-(((2r,3aR,5S,6aS)-5-cyclopropoxy-2-methyloctahydropentalen-2-yl)amino)acetyl)pyrrolidine-2-carbonitrile] | – | 9.23 | – | – | – |
